Measurements from patent US20230414735A1, “NEOANTIGENS AND METHODS OF THEIR USE” (priority 2016, published 2023).
Where a SMILES comes first, the peptide text is derived from it. Where no end group is shown, it is not given here.

Experiments:
[1] = test system: HLA-A02:01+ T cells (CD8+ T cells); experiment: Immunogenicity assay: CD8+ T cell expansion with peptide-loaded monocyte-derived dendritic cells, multimer/tetramer staining; format: cell-based, human; settings: HLA-A02:01^+ T cells co-cultured 10 days with peptide-loaded monocyte-derived dendritic cells; initial and validation multimer preparations; shown as examples of positive multimer staining (FIGS. 3-6)
Description: Immunogenicity assays are used to test the ability of each test peptide to expand T cells. Mature professional APCs are prepared for these assays in the following way. Monocytes are enriched from healthy human donor PBMCs using a bead-based kit (Miltenyi). Enriched cells are plated in GM-CSF and IL-4 to induce immature DCs. After 5 days, immature DCs are incubated at 37° C. with each peptide for 1 hour before addition of a cytokine maturation cocktail (GM-CSF, IL-1β, IL-4, IL-6, TNFα, PGE1β). Cells are incubated at 37° C. to mature DCs.
After maturation of DCs, PBMCs (either bulk or enriched for T cells) are added to mature dendritic cells with proliferation cytokines. Cultures are monitored for peptide-specific T cells using a combination of functional assays and/or tetramer staining Parallel immunogenicity assays with the modified and parent peptides allowed for comparisons of the relative efficiency with which the peptides expanded peptide-specific T cells.
Tetramer Staining. MHC tetramers are purchased or manufactured on-site, and are used to measure peptide-specific T cell expansion in the immunogenicity assays. For the assessment, tetramer is added to 1×10^5 cells in PBS containing 1% FCS and 0.1% sodium azide (FACS buffer) according to manufacturer's instructions. Cells are incubated in the dark for 20 minutes at room temperature. […] Cells are washed with cold FACS buffer and resuspended in buffer containing 1% formaldehyde. Cells are acquired on a FACS Calibur (Becton Dickinson) instrument, and are analyzed by use of Cellquest software (Becton Dickinson). For analysis of tetramer positive cells, the lymphocyte gate is taken from the forward and side-scatter plots. Data are reported as the percentage of cells that were CD8^+/Tetramer^+.
Immunogenicity assays were carried out to assess whether each peptide can elicit a T cell response by antigen-specific expansion. […] Each positive result was measured with a second multimer preparation to avoid any preparation biases.

HLA class I molecule [2] = molecular target: T1, HLA class I molecule (Homo sapiens, UniProt P04439); experiment: HLA class I peptide binding affinity assay (inhibition of 125I-radiolabeled probe peptide binding to purified HLA); settings: Allele A03.01; read-out: Observed Affinity (IC50; (nM))
T1 construct: made in house; host or cells: EBV-transformed homozygous cell lines, fibroblasts, CIR or 721.22 transfectants; purified from detergent lysates on an anti-HLA antibody column
T1 sequence (P04439 25-365): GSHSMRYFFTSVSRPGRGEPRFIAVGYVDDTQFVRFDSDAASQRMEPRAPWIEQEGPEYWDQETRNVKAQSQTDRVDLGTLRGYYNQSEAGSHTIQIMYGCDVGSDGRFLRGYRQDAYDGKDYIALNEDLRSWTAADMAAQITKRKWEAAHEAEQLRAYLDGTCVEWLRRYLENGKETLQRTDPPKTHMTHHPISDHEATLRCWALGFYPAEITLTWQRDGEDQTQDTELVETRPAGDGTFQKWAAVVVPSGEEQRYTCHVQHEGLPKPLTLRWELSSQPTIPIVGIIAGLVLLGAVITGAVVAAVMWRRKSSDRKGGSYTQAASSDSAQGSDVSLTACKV
T1 sequence (P61769 21-119 partner): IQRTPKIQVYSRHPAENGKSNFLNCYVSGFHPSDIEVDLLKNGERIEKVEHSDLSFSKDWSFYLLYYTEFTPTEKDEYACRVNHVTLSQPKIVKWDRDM
Description: (§1) Epstein-Barr virus (EBV)-transformed homozygous cell lines, fibroblasts, CIR, or 721.22 transfectants are used as sources of HLA class I molecules. […] HLA molecules are purified from lysates by affinity chromatography. The lysates are passed over a column of Sepharose CL-4B beads coupled to an appropriate antibody. […] A 1/25 volume of 2.0 M Tris, pH 6.8, is added to the eluate to reduce the pH to […]. Eluates are then concentrated by centrifugation in Centriprep 30 concentrators (Amicon, Beverly, MA). Protein content is evaluated by a BCA protein assay (Pierce Chemical Co., Rockford, IL) and confirmed by SDS-PAGE.
(§2) Following incubation, MHC-peptide complexes are separated from free peptide by gel filtration on 7.8 mm×15 cm TSK200 columns (TosoHaas 16215, Montgomeryville, PA). Because the large size of the radiolabeled peptide used for the DRB1*1501 (DR2w2(31) assay makes separation of bound from unbound peaks more difficult under these conditions, all DRB1*1501 (DR2w2(31) assays were performed using a 7.8 mm×30 cm TSK2000 column eluted at 0.6 mLs/min. The eluate from the TSK columns is passed through a Beckman 170 radioisotope detector, and radioactivity is plotted and integrated using a Hewlett-Packard 3396A integrator, and the fraction of peptide bound is determined.
(§3) Radiolabeled peptides are iodinated using the chloramine-T method. […] All subsequent inhibition and direct binding assays are performed using these HLA concentrations.
(§4) Since under these conditions [label]<[HLA] and IC50≥[HLA], the measured IC50 values are reasonable approximations of the true KD values. […] For database purposes, and inter-experiment comparisons, relative binding values are compiled. These values can subsequently be converted back into IC50 nM values by dividing the IC50 nM of the positive controls for inhibition by the relative binding of the peptide of interest.
(§5) HLA binding assays were used to evaluate either the affinity of interaction of a given epitope with a selected HLA molecule or the stability.
(§6) The measurements are plotted against the predicted affinity in FIG. 1.

[3] = test system: ovarian carcinoma patients; settings: ovarian carcinoma patients immunized with poly-ICLC in combination with a NYESO-1 peptide vaccine (in addition to Montanide); phase 1 study; cited from earlier work
HLA class I molecule [4] = experiment: HLA class I peptide binding affinity assay (inhibition of 125I-radiolabeled probe peptide binding to purified HLA); design: species or system human; settings: allele A02.01; read-out: Observed Affinity (IC50; (nM))
Description: as §1, §2, §3, §4, §5, §6

HLA Class I molecules = experiment: HLA class I binding stability assay (pMHC-I complex dissociation, 125I-labeled β2m, scintillation counts); design: species or system human; settings: allele A02.01

| Compound | IC50 (HLA class I molecule [4]) | Stability (T1/2 (h)) (HLA Class I molecules; 37° C.) | also measured |
| --- | --- | --- | --- |
| ALNSEALSV [HLA-A02:01] |  |  | antigen-specific (multimer-double-positive) CD8^+ T cells, multimer staining [1]: antigen-specificity |
| CC[C@H](C)[C@H](NC(=O)[C@H](Cc1c[nH]c2ccccc12)NC(=O)[C@H](CS)NC(=O)[C@H](Cc1ccccc1)NC(=O)[C@@H](N)Cc1ccccc1)C(=O)N[C@@H](CC(C)C)C(=O)N[C@@H](CO)C(=O)N[C@@H](CS)C(=O)N[C@@H](CCCCN)C(=O)O (H-FFCWILSCK-OH) |  |  | IC50 (HLA class I molecule [2]): 185 nM |
| SMLTGPPARV [HLA-A02:01] |  |  | antigen-specific (multimer-double-positive) CD8^+ T cells, multimer staining [1]: antigen-specificity |
| poly-ICLC |  |  | patients showing induction of CD4+ and CD8+ T cell, as well as antibody responses to the peptide [3]: > 90% |
| LLCVWVSSI [HLA-A02:01] |  |  | antigen-specific (multimer-double-positive) CD8^+ T cells, multimer staining [1]: antigen-specificity |
| ALSEHCPTT | 79 nM | 27.3 h |  |
| SMLTDSLFL | 31 nM | 9.8 h |  |
| GLLAFWDSQV | 10 nM | 14.2 h |  |
| VLHESNSPYI | 131 nM | 1.9 h |  |
| VLTVTSTDV | 295 nM | 1.1 h |  |
| CC(C)C[C@H](NC(=O)CN)C(=O)N[C@H](C(=O)N[C@@H](CC(=O)O)C(=O)N[C@@H](CCC(=O)O)C(=O)N[C@@H](CCC(N)=O)C(=O)N[C@@H](CCC(N)=O)C(=O)N[C@@H](CCC(=O)O)C(=O)N[C@H](C(=O)O)C(C)C)C(C)C | 44 nM | 7.4 h |  |
| ALSASNSCF | 728 nM | 0.3 h |  |
| GVYTFLPSTL | 1200 nM |  | Stability (T1/2 (h)) (HLA Class I molecules; pMHC-I dissociation at 37° C.): 0.4 h |
| CC(C)C[C@H](NC(=O)[C@@H](NC(=O)[C@H](CC(=O)O)NC(=O)[C@H](CC(C)C)NC(=O)[C@@H](NC(=O)[C@@H](N)Cc1ccc(O)cc1)[C@@H](C)O)C(C)C)C(=O)N[C@@H](CCC(=O)O)C(=O)N[C@@H](CCCNC(=N)N)C(=O)N[C@@H](CS)C(=O)O | 1760 nM | 6.6 h |  |
